Reference: patent US4803167A, “Monoclonal antidigoxtin antibodies” (The General Hospital Corporation, priority 1982, dated 1989)
Where two headings read alike, the source gives them in different places.

Assays:
Experiment in all cases: Specificity determination, inhibition of [3H]digoxin binding in dextran charcoal RIA
[1] = tested on: monoclonal anti-digoxin antibody Dig 25-54; set-up: species or system mouse (A/J); settings: for amount of inhibitor required to give 50% inhibition relative to the amount of digoxin which gave 50% inhibition: inhibition of antibody binding to [3H]digoxin
Method: (§1) The specificity of each antidigoxin antibody for related cardiac glycosides was assessed by the inhibition of binding of antibody in the dextran charcoal radioimmunoassay Smith (1972), supra. To a constant amount of H^3 -digoxin (1.5 ng) in 1 ml of buffer is added different amounts ([…]) of various cardiac glycosides: digoxin, digitoxin, digitoxigenin, digoxigenin, acetyl-strophanthidin, ouabain, deslanoside, and endogenous steroids such as chloresterol, cortisol, androsterone, 17-[beta]-estradiol, progesterone, and testosterone. After 5 minutes, a constant amount of anti-digoxin antibody was added and the assay was continued as described above. Comparison among different antidigoxin antibodies with respect to their fine specificity was made by determining the amount of cardiac glycoside required to achieve 50% inhibition relative to that required for cold digoxin.
(§2) Specificity of monoclonal antibody binding site for related cardiac glycosides was examined by means of hapten inhibition experiments in which the binding of monoclonal antibody to H^3 -digoxin was inhibited by cold digoxin and related cardiac glycosides.

[2] = tested on: monoclonal anti-digoxin antibody Dig 26-10; set-up: species or system mouse (A/J); settings: for amount of inhibitor required to give 50% inhibition relative to the amount of digoxin which gave 50% inhibition: inhibition of antibody binding to [3H]digoxin
Method: as §1, §2

[3] = tested on: monoclonal anti-digoxin antibody Dig 26-20; set-up: species or system mouse (A/J); settings: for amount of inhibitor required to give 50% inhibition relative to the amount of digoxin which gave 50% inhibition: inhibition of antibody binding to [3H]digoxin
Method: as §1, §2

[4] = tested on: monoclonal anti-digoxin antibody Dig 26-30; set-up: species or system mouse (A/J); settings: for amount of inhibitor required to give 50% inhibition relative to the amount of digoxin which gave 50% inhibition: inhibition of antibody binding to [3H]digoxin
Method: as §1, §2

[5] = tested on: monoclonal anti-digoxin antibody Dig 26-40; set-up: species or system mouse (A/J); settings: for amount of inhibitor required to give 50% inhibition relative to the amount of digoxin which gave 50% inhibition: inhibition of antibody binding to [3H]digoxin
Method: as §1, §2

[6] = tested on: monoclonal anti-digoxin antibody Dig 35-20; set-up: species or system mouse (A/J); settings: for amount of inhibitor required to give 50% inhibition relative to the amount of digoxin which gave 50% inhibition: inhibition of antibody binding to [3H]digoxin
Method: as §1, §2

[7] = tested on: Sheep Anti-Dig Serum (heterogeneous anti-digoxin antiserum); settings: inhibition of antibody binding to [3H]digoxin
Method: Antisera specific for digoxin was prepared in sheep as previously described by Curd et al, Proc. Nat. Acad. Sci. 65: 2401 (1971). High affinity antidigoxin sheep antisera was used in the clinical RIA for digoxin (described below).
as §1, §2

[8] = highest concentration tested 10^-4 M

Row | Compound | inhibition of binding of [3H]digoxin by endogenous steroids [1, 8] | inhibition of binding of [3H]digoxin by endogenous steroids [2, 8] | inhibition of binding of [3H]digoxin by endogenous steroids [3, 8] | inhibition of binding of [3H]digoxin by endogenous steroids [4, 8] | inhibition of binding of [3H]digoxin by endogenous steroids [5, 8] | inhibition of binding of [3H]digoxin by endogenous steroids [6, 8] | amount of inhibitor required to give 50% inhibition relative to the amount of digoxin which gave 50% inhibition [1] | amount of inhibitor required to give 50% inhibition relative to the amount of digoxin which gave 50% inhibition [2] | amount of inhibitor required to give 50% inhibition relative to the amount of digoxin which gave 50% inhibition [3] | amount of inhibitor required to give 50% inhibition relative to the amount of digoxin which gave 50% inhibition [4] | amount of inhibitor required to give 50% inhibition relative to the amount of digoxin which gave 50% inhibition [5] | amount of inhibitor required to give 50% inhibition relative to the amount of digoxin which gave 50% inhibition [6] | other results
1 | 4-androstedione | – | – | – | – | – | – | – | – | – | – | – | – | inhibition of binding of [3H]digoxin by endogenous steroids [1]: No significant inhibition; inhibition of binding of [3H]digoxin by endogenous steroids [2]: No significant inhibition; inhibition of binding of [3H]digoxin by endogenous steroids [3]: No significant inhibition; inhibition of binding of [3H]digoxin by endogenous steroids [4]: No significant inhibition; inhibition of binding of [3H]digoxin by endogenous steroids [5]: No significant inhibition; inhibition of binding of [3H]digoxin by endogenous steroids [6]: No significant inhibition
2 | C[C@]12CC[C@@H]3c4ccc(O)cc4CC[C@H]3[C@@H]1CC[C@@H]2O [17-[beta]-estradiol] | No significant inhibition | No significant inhibition | No significant inhibition | No significant inhibition | No significant inhibition | No significant inhibition | – | – | – | – | – | – | –
3 | CC(=O)O[C@H]1CC[C@]2(C=O)[C@H]3CC[C@]4(C)[C@@H](C5=CC(=O)OC5)CC[C@]4(O)[C@@H]3CC[C@]2(O)C1 [Acetylstrophanthidin] | – | – | – | – | – | – | > 100 | 1.50 | 0.70 | 0.85 | 2.30 | 110 | –
4 | C[C@H]1O[C@@H](O[C@H]2CC[C@@]3(C)[C@H](CC[C@@H]4[C@@H]3C[C@@H](O)[C@]3(C)[C@@H](C5=CC(=O)OC5)CC[C@]43O)C2)C[C@H](O)[C@@H]1O[C@H]1C[C@H](O)[C@H](O[C@H]2C[C@H](O)[C@H](O[C@@H]3O[C@H](CO)[C@@H](O)[C@H](O)[C@H]3O)[C@@H](C)O2)[C@@H](C)O1 [Deslanoside] | – | – | – | – | – | – | 4.3 | 2.6 | 1.5 | 1.6 | 2.0 | 3.7 | –
5 | C[C@]12CC[C@H](O)C[C@H]1CC[C@@H]1[C@@H]2CC[C@]2(C)[C@@H](C3=CC(=O)OC3)CC[C@]12O [Digitoxigenin] | – | – | – | – | – | – | 54.0 | 3.7 | 2.2 | 3.6 | 4.0 | 2.7 | amount of inhibitor required to give 50% inhibition relative to the amount of digoxin which gave 50% inhibition [7]: 860.0
6 | C[C@H]1O[C@@H](O[C@H]2[C@@H](O)C[C@H](O[C@H]3[C@@H](O)C[C@H](O[C@H]4CC[C@@]5(C)[C@H](CC[C@@H]6[C@@H]5CC[C@]5(C)[C@@H](C7=CC(=O)OC7)CC[C@]65O)C4)O[C@@H]3C)O[C@@H]2C)C[C@H](O)[C@@H]1O [Digitoxin] | – | – | – | – | – | – | 1.8 | 1.3 | 1.0 | 2.6 | 1.4 | 4.6 | amount of inhibitor required to give 50% inhibition relative to the amount of digoxin which gave 50% inhibition [7]: 152.0; amount of inhibitor required to give 50% inhibition relative to the amount of digoxin which gave 50% inhibition ([7]; listed as digitoxin): 150
7 | C[C@@H]1O[C@@H](O[C@H]2C[C@@H](O)[C@]3(CO)[C@H]4[C@H](O)C[C@]5(C)[C@@H](C6=CC(=O)OC6)CC[C@]5(O)[C@@H]4CC[C@]3(O)C2)[C@H](O)[C@H](O)[C@H]1O [Ouabain] | – | – | – | – | – | – | > 100 | 66 | 53 | 84 | 78 | 333 | amount of inhibitor required to give 50% inhibition relative to the amount of digoxin which gave 50% inhibition [7]: > 10^5
8 | CC(C)CCC[C@@H](C)[C@H]1CC[C@H]2[C@@H]3CC=C4C[C@@H](O)CC[C@]4(C)[C@H]3CC[C@]12C [cholesterol] | No significant inhibition | No significant inhibition | No significant inhibition | No significant inhibition | No significant inhibition | No significant inhibition | – | – | – | – | – | – | –
9 | C[C@]12CCC(=O)C=C1CC[C@@H]1[C@@H]2[C@@H](O)C[C@@]2(C)[C@H]1CC[C@]2(O)C(=O)CO [cortisol] | No significant inhibition | No significant inhibition | No significant inhibition | No significant inhibition | No significant inhibition | No significant inhibition | – | – | – | – | – | – | –
10 | CC(=O)[C@H]1CC[C@H]2[C@@H]3CCC4=CC(=O)CC[C@]4(C)[C@H]3CC[C@]12C [progesterone] | No significant inhibition | No significant inhibition | No significant inhibition | No significant inhibition | No significant inhibition | No significant inhibition | – | – | – | – | – | – | –
11 | C[C@]12CC[C@H]3[C@@H](CCC4=CC(=O)CC[C@@]43C)[C@@H]1CC[C@@H]2O [testosterone] | – | – | – | – | – | – | – | – | – | – | – | – | inhibition of binding of [3H]digoxin by endogenous steroids [1]: No significant inhibition; inhibition of binding of [3H]digoxin by endogenous steroids [2]: No significant inhibition; inhibition of binding of [3H]digoxin by endogenous steroids [3]: No significant inhibition; inhibition of binding of [3H]digoxin by endogenous steroids [4]: No significant inhibition; inhibition of binding of [3H]digoxin by endogenous steroids [5]: No significant inhibition; inhibition of binding of [3H]digoxin by endogenous steroids [6]: No significant inhibition
